The values that follow are results of earlier work, collected in patent publication US20230158030A1, “METHODS AND COMPOSITION FOR TREATMENT OF COVID-19 ILLNESS REQUIRING HOSPITALIZATION” (OHIO STATE INNOVATION FOUNDATION, priority 2020, published 2023).

One data set has as its system covid-19. Conditions: active covid-19 syndrome.
For another data set, the system named is T-cell function. Conditions: TLR agonists, PD1 blockade, CAR-T cells.
A further data set relates to pneumococcal pneumonia. Conditions: murine pneumococcal pneumonia.
Data set [1] relates to CAR-T cell mediated cytokine release syndrome. Conditions: murine CAR-T cytokine release syndrome model.
[2] abbreviates: intranasally to mice starting 72 h after lethal infection.

For the compound `CCN(CCO)CCCC(C)Nc1ccnc2cc(Cl)ccc12` (stereo not shown) [hydroxychloraquine], in the data set on covid-19, the “benefit among ill patients” value was “antidotal benefit”.

Turning to `C=CC(=O)N1CCC[C@@H](n2nc(-c3ccc(Oc4ccccc4)cc3)c3c(N)ncnc32)C1` [ibrutinib, 1-[(3R)-3-[4-amino-3-(4-phenoxyphenyl)pyrazolo[3,4-d]pyrimidin-1-yl]piperidin-1-yl]prop-2-en-1-one], in the data set on T-cell function, the “enhancement of other T-cell based therapies” value is reported as “enhance other T-cell based therapies”. Also, in the data set on pneumococcal pneumonia, the “antibiotic mediated killing of bacteria” value is reported as “not impaired”; the “monocyte and neutrophil influx into the lung, alveolar macrophage activation, neutrophil influx, cytokine release and plasma leakage” value was “negatively influence”. In the data set with influenza A virus (setting [2]), the overall survival entry is “improved overall survival” and the weight loss result is “diminished weight loss”. In the data set with influenza A virus (mice, lethal influenza A), the “inflammatory mediators TNFalpha, IL-1beta, IL-6, KC, and MCP-1” value was “diminished”; the “morphological changes to the lungs” value was “decreased alveolar hemorrhage, interstitial thickening, and the presence of alveolar exudate”. In data set [1], the “T-cell expansion or killing” value is “not abrogating T-cell expansion or killing” and the survival entry was “improved survival”.
